Measurements as given in patent US20230117034A1, “PYRAZOLOTRIAZINES” (Bayer Aktiengesellschaft, priority 2019, published 2023).

Key:
[1] = test system: MDA-MB-231, human breast cancer cells; test: Proliferation assay MDA-MB-231 (crystal violet, 4 days); type: cell-based; conditions: Homo sapiens, MDA-MB-231, 96 h, MDA-MB-231 cells, median, read-out: Prolif-MDA MB-231, IC50-[mol/l] (median)
Outline: (§1)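 Plated 4,000 cells/well, 10% FCS; 24 h later treated 0.01-10 µmol/L cpd (DMSO 0.1%), 4 d. Fix glutaraldehyde, stain 0.1% crystal violet pH 3.0, elute acetic acid, A595. Normalized to t0 plate/untreated; 4-param IC50.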

CDK9/CycT1 = molecular target: T1, CDK9/CycT1 (Homo sapiens, UniProt P50750); test: CDK9/CycT1 high ATP kinase assay (TR-FRET, 2 mM ATP); type: biochemical; conditions: 2 mM ATP (high ATP); median; read-out: CDK9/CyclinT1, 2 mM ATP (high ATP), IC50 (median)
T1 construct: Recombinant full-length His-tagged human CDK9 and CycT1; purchased Life Technologies PV4131; host or cells: insect cells
Outline: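 Full-length His-tagged human CDK9/CycT1 (insect cell, ~0.5 μg/mL) preincubated 15 min at 22 °C with compound in Tris pH 8.0, MgCl2, DTT buffer before reaction with biotinylated peptide substrate at high ATP (2 mM).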

[2] = molecular target: T2, CYCLIN K (nuclear staining in CAL-120 cells) (Homo sapiens, UniProt O75909); test: CYCLIN K nuclear protein level: immunofluorescence high content analysis (CAL-120); type: cell-based; conditions: 24 h, 50% reduction of nuclear CCNK staining intensity, median, read-out: CYCLIN K degradation IF, DC50-[mol/l] (median)
T2 construct: endogenous in cells; host or cells: CAL-120 human breast cancer cells (DSMZ ACC 459)
Outline: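 CAL-120 breast cancer cells treated in dose-response for 24 h at 37 °C, PFA-fixed and immunostained for cyclin K with Hoechst counterstain. Confocal imaging quantified nuclear intensity; DC50 is the concentration giving 50% reduction of nuclear CCNK staining, normalized to DMSO and control.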

[3] = test system: CAL-120, human breast adenocarcinoma cells; test: Proliferation assay CAL-120 (crystal violet, 4 days); type: cell-based; conditions: Homo sapiens, CAL-120, 96 h, CAL-120 cells, median, read-out: Prolif-CAL-120, IC50-[mol/l] (median)
Outline: as §1

T2 sequence (O75909 whole entry): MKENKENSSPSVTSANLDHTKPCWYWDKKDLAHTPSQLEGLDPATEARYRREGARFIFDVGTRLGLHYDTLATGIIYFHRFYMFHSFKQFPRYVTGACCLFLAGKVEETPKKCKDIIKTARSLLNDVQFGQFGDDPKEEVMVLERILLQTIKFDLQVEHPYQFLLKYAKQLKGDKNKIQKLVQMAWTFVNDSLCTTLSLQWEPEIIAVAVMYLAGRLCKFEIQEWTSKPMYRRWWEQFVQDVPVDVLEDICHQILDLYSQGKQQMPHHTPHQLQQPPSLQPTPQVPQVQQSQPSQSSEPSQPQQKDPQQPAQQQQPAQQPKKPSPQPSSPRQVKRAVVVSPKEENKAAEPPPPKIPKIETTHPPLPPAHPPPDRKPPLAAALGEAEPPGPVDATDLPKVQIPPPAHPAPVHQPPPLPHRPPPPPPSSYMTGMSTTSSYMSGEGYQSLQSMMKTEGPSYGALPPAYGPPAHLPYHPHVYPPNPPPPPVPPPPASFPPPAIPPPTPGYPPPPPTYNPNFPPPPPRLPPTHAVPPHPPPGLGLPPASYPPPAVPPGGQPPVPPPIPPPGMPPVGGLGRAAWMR
T2 sequence (Q9NYV4 whole entry partner): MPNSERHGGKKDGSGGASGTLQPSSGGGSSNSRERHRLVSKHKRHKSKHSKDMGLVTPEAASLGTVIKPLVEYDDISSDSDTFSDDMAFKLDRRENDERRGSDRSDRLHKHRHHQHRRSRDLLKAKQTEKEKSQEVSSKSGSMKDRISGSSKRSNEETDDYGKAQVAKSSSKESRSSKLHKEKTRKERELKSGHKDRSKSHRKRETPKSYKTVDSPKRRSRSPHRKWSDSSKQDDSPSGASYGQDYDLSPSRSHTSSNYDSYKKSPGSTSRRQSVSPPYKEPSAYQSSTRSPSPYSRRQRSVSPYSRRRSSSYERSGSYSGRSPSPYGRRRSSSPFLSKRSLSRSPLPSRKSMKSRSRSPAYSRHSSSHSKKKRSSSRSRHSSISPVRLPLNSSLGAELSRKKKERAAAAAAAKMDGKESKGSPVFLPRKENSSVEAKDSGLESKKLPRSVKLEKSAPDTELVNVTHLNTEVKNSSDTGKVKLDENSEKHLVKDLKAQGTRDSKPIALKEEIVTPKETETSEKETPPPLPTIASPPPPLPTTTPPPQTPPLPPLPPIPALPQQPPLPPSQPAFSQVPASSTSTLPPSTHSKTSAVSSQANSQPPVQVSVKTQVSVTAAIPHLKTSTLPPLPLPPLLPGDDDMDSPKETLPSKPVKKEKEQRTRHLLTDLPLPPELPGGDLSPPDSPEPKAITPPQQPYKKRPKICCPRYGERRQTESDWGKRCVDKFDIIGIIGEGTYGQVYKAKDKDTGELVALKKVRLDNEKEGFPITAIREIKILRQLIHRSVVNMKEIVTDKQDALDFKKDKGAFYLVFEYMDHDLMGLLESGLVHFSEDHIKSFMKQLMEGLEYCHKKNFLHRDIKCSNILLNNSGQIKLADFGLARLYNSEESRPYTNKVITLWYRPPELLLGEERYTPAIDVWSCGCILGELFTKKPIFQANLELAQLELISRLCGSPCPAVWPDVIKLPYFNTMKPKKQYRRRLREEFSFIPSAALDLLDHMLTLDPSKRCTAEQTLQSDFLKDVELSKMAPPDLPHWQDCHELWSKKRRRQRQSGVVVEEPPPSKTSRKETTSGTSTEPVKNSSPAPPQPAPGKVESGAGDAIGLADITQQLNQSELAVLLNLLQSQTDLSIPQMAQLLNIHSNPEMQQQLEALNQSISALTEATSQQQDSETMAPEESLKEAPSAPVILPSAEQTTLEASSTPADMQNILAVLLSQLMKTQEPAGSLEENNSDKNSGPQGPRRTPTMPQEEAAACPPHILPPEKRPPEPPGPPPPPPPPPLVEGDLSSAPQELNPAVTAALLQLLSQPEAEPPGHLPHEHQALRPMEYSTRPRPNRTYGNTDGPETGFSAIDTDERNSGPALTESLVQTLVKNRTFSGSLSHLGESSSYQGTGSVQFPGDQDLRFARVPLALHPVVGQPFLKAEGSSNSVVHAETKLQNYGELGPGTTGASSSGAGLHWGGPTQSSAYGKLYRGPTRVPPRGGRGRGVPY
T1 sequence (P50750 whole entry): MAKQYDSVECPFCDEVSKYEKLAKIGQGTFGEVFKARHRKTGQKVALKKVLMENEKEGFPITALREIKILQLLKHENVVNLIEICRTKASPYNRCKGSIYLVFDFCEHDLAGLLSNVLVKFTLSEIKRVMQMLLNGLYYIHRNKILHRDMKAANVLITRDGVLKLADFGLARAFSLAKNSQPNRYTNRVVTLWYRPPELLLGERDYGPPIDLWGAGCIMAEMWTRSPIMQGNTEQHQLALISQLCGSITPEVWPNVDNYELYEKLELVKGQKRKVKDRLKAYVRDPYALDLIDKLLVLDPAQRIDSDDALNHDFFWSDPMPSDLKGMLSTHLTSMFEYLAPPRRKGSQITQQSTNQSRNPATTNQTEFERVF
T1 sequence (O60563 whole entry partner): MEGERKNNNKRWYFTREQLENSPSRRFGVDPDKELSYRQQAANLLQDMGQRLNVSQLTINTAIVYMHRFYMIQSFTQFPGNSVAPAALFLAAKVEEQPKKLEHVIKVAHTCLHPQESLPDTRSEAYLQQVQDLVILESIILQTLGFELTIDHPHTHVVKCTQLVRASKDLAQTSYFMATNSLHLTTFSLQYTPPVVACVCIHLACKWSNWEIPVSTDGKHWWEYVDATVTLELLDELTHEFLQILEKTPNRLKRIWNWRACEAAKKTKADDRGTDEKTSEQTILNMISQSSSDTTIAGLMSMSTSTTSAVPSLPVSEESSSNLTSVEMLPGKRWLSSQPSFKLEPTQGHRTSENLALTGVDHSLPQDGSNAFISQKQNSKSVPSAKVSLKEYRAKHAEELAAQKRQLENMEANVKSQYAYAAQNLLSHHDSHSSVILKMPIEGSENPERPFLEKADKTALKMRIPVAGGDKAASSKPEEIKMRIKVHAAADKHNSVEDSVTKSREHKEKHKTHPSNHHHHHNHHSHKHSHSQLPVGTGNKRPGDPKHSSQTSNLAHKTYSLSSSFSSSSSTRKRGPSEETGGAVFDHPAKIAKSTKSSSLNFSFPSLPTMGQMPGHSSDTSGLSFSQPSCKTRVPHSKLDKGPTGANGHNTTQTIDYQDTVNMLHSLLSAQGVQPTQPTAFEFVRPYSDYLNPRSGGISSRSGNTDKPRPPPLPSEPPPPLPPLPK

Row | IC50 [1] [nM] | IC50 (CDK9/CycT1) [nM] | DC50 [2] [nM] | IC50 [3] [nM] | SMILES
1 | 2.19 | > 20000 | 0.0976 | 1 | Fc1ccc2[nH]c(CNc3nc(N4CCNCC4)nc4c(C5CC5)cnn34)nc2c1F [Example 174, 8-cyclopropyl-N-[(4,5-difluoro-1H-benzimidazol-2-yl)methyl]-2-(piperazin-1-yl)pyrazolo[1,5-a][1,3,5]triazin-4-amine]
2 | 38.6 | > 20000 | 1.09 | 23.7 | CN1CC2CN(c3nc(NCc4nc5ccccc5[nH]4)n4ncc(Br)c4n3)CC2C1 (stereo not shown) [Example 240, N-(1H-benzimidazol-2-ylmethyl)-8-bromo-2-(2-methyl-1,3,3a,4,6,6a-hexahydropyrrolo[3,4-c]pyrrol-5-yl)pyrazolo[1,5-a][1,3,5]triazin-4-amine]
3 | 53.2 | > 20000 | 2.32 | 15.4 | Brc1cnn2c(NCc3nc4ccccc4[nH]3)nc(N3C[C@H]4CCCN[C@H]4C3)nc12 [Example 199, N-[(1H-benzimidazol-2-yl)methyl]-8-bromo-2-[(4aR, 7aR)-octahydro-6H-pyrrolo[3,4-b]pyridin-6-yl]pyrazolo[1,5-a][1,3,5]triazin-4-amine]
4 | 31.7 | > 20000 | 0.41 | 13 | CN1CC2CCC1CN2c1nc(NCc2nc3ccccc3[nH]2)n2ncc(Br)c2n1 (stereo not shown) [Example 221, N-(1H-benzimidazol-2-ylmethyl)-8-bromo-2-(5-methyl-2,5-diazabicyclo[2.2.2]octan-2-yl)pyrazolo[1,5-a][1,3,5]triazin-4-amine]
5 | 4.94 | > 20000 | 0.16 | 4.2 | C[C@@H]1CN(c2nc(NCc3nc4c(F)cccc4[nH]3)n3ncc(C4CC4)c3n2)C[C@H](C)N1 [Example 186, 8-cyclopropyl-2-[(3R,5S)-3,5-dimethylpiperazin-1-yl]-N-[(4-fluoro-1H-benzimidazol-2-yl)methyl]pyrazolo[1,5-a][1,3,5]triazin-4-amine]
6 | 57.9 | > 20000 | 2.7 | 44.2 | CCNc1nc(NCc2nc3ccccc3[nH]2)n2ncc(Br)c2n1 [Example 227, N4-(1H-benzimidazol-2-ylmethyl)-8-bromo-N2-ethyl-pyrazolo[1,5-a][1,3,5]triazine-2,4-diamine]
7 | 31 | > 20000 | 1.39 | 32.4 | CN1CCN(c2nc(NCc3nc4ccccc4[nH]3)n3ncc(Br)c3n2)CC1 [Example 18, N-[(1H-benzimidazol-2-yl)methyl]-8-bromo-2-(4-methylpiperazin-1-yl)pyrazolo[1,5-a][1,3,5]triazin-4-amine]
8 | 4.8 | > 20000 | 1.29 | 4.46 | Cc1ccc2[nH]c(CNc3nc(N4C[C@@H]5CCCN[C@@H]5C4)nc4c(C5CC5)cnn34)nc2c1 [Example 195, 8-cyclopropyl-N-[(5-methyl-1H-benzimidazol-2-yl)methyl]-2-[(4aS,7aS)-octahydro-6H-pyrrolo[3,4-b]pyridin-6-yl]pyrazolo[1,5-a][1,3,5]triazin-4-amine]
9 | 13.8 | > 20000 | 0.369 | 1.1 | Fc1cccc2[nH]c(CNc3nc(N4C[C@@H]5CCCN[C@@H]5C4)nc4c(C5CC5)cnn34)nc12 [Example 187, 8-cyclopropyl-N-[(4-fluoro-1H-benzimidazol-2-yl)methyl]-2-[(4aS,7aS)-octahydro-6H-pyrrolo[3,4-b]pyridin-6-yl]pyrazolo[1,5-a][1,3,5]triazin-4-amine]
10 | 20.8 | > 20000 | 1.03 | 8.14 | Fc1ccc2[nH]c(CNc3nc(N4C[C@@H]5C[C@H]4CO5)nc4c(C5CC5)cnn34)nc2c1F [Example 173, 8-cyclopropyl-N-[(4,5-difluoro-1H-benzimidazol-2-yl)methyl]-2-[(1S,4S)-2-oxa-5-azabicyclo[2.2.1]heptan-5-yl]pyrazolo[1,5-a][1,3,5]triazin-4-amine]
11 | 110 | > 20000 | 34.1 | 135 | CN1CCCC2CN(c3nc(NCc4nc5ccccc5[nH]4)n4ncc(Br)c4n3)CC21 (stereo not shown) [Example 231, N-[(1H-benzimidazol-2-yl)methyl]-8-bromo-2-(1-methyloctahydro-6H-pyrrolo[3,4-b]pyridin-6-yl)pyrazolo[1,5-a][1,3,5]triazin-4-amine]
12 | 50.3 | > 20000 | 1.23 | 27.2 | CN1C[C@@H]2C[C@H]1CN2c1nc(NCc2nc3ccccc3[nH]2)n2ncc(Br)c2n1 [Example 219, N-[(1H-benzimidazol-2-yl)methyl]-8-bromo-2-[(1S,4S)-5-methyl-2,5-diazabicyclo[2.2.1]heptan-2-yl]pyrazolo[1,5-a][1,3,5]triazin-4-amine]
13 | 1.59 | > 20000 | 0.0967 | 0.869 | Cc1ccc2[nH]c(CNc3nc(N4CCNCC4)nc4c(Br)cnn34)nc2c1 [Example 204, 8-bromo-N-[(5-methyl-1H-benzimidazol-2-yl)methyl]-2-(piperazin-1-yl)pyrazolo[1,5-a][1,3,5]triazin-4-amine]
14 | 5.49 | > 20000 | 0.981 | 2.66 | Fc1ccc2[nH]c(CNc3nc(N4C[C@@H]5CCCN[C@@H]5C4)nc4c(C5CC5)cnn34)nc2c1F [Example 171, 8-cyclopropyl-N-[(4,5-difluoro-1H-benzimidazol-2-yl)methyl]-2-[(4aS,7aS)-octahydro-6H-pyrrolo[3,4-b]pyridin-6-yl]pyrazolo[1,5-a][1,3,5]triazin-4-amine]
15 | 3.26 | > 20000 | 0.147 | 1.15 | C[C@@H]1CN(c2nc(NCc3nc4cc(F)ccc4[nH]3)n3ncc(C4CC4)c3n2)C[C@H](C)N1 [Example 175, 8-cyclopropyl-2-[(3R,5S)-3,5-dimethylpiperazin-1-yl]-N-[(5-fluoro-1H-benzimidazol-2-yl)methyl]pyrazolo[1,5-a][1,3,5]triazin-4-amine]
16 | 129 | > 20000 | 6.49 | 34.3 | Brc1cnn2c(NCc3nc4ccccc4[nH]3)nc(N3CCC4(CCCN4)C3)nc12 (stereo not shown) [Example 215, N-(1H-benzimidazol-2-ylmethyl)-8-bromo-2-(1,7-diazaspiro[4.4]nonan-7-yl)pyrazolo[1,5-a][1,3,5]triazin-4-amine]
17 | 182 | > 20000 | 3.05 | 107 | CO[C@H]1CCN(c2nc(NCc3nc4ccccc4[nH]3)n3ncc(Br)c3n2)C1 [Example 222, N-[(1H-benzimidazol-2-yl)methyl]-8-bromo-2-[(3S)-3-methoxypyrrolidin-1-yl]pyrazolo[1,5-a][1,3,5]triazin-4-amine]
18 | 5.45 | > 20000 | 0.47 | 2.29 | COc1cccc2[nH]c(CNc3nc(N4C[C@@H](C)N[C@@H](C)C4)nc4c(C5CC5)cnn34)nc12 [Example 212, 8-cyclopropyl-2-[(3R,5S)-3,5-dimethylpiperazin-1-yl]-N-[(4-methoxy-1H-benzimidazol-2-yl)methyl]pyrazolo[1,5-a][1,3,5]triazin-4-amine]
19 | 56 | > 20000 | 1.64 | 27.4 | Fc1cccc2[nH]c(CNc3nc(N4C[C@@H]5C[C@H]4CO5)nc4c(C5CC5)cnn34)nc12 [Example 183, 8-cyclopropyl-N-[(4-fluoro-1H-benzimidazol-2-yl)methyl]-2-[(1S,4S)-2-oxa-5-azabicyclo[2.2.1]heptan-5-yl]pyrazolo[1,5-a][1,3,5]triazin-4-amine]
20 | 7.03 | > 20000 | 0.478 | 2.29 | COc1cccc2[nH]c(CNc3nc(N4CCNCC4)nc4c(C5CC5)cnn34)nc12 [Example 211, 8-cyclopropyl-N-[(4-methoxy-1H-benzimidazol-2-yl)methyl]-2-(piperazin-1-yl)pyrazolo[1,5-a][1,3,5]triazin-4-amine]
21 | 90.5 | > 20000 | 1.72 | 97.4 | COC(C)(C)CNc1nc(NCc2nc3ccccc3[nH]2)n2ncc(Br)c2n1 [Example 236, N4-(1H-benzimidazol-2-ylmethyl)-8-bromo-N2-(2-methoxy-2-methyl-propyl)pyrazolo[1,5-a][1,3,5]triazine-2,4-diamine]
22 | 14.6 | > 20000 | 0.208 | 4.37 | Brc1cnn2c(NCc3nc4ccccc4[nH]3)nc(N3CCNC4(CC4)C3)nc12 [Example 176, N-[(1H-benzimidazol-2-yl)methyl]-8-bromo-2-(4,7-diazaspiro[2.5]octan-7-yl)pyrazolo[1,5-a][1,3,5]triazin-4-amine]
